Test results reported in US11492345B2, “Compounds and their methods of use” (Praxis Precision Medicines, Inc., priority 2017, dated 2022).

Molecular target: T1, human Nav1.6 (hNav1.6) (Homo sapiens, UniProt Q9UQD0)
T1 construct: expressed in transfected cells; host or cells: HEK-293 (G418 selection)
Assay: Modulation of late sodium current (INaL), PatchXpress electrophysiology
Type: cell-based
Conditions: HEK293; 1 μM compound; HEK-293 cells expressing recombinant human Nav channel; late current evoked by 300 nM ATX-II; steady-state inhibition; read-out: INaL v1.6 (1 μM, % Inhibition)
Procedure: Functional characterization of exemplary compounds to modulate INaL expressed by the Nav1.6 voltage-gated sodium channel was accomplished using the PatchXpress™ high throughput electrophysiology platform (Molecular Devices, Sunnyvale, Calif.). HEK-293 cells expressing recombinant, human Nav1.6 (hNav1.6) were grown in DMEM/high-glucose Dulbecco's modified, 10% FBS, 2 mM sodium pyruvate, 10 mM HEPES and 400 μg/mL G418. Cells were grown to 50%-80% confluency prior to harvesting. Trypsinized cells were washed, allowed to recover for 1 hour and then resuspended in extracellular recording solution at a concentration of 1×10^6 cells/ml. The onboard liquid handling facility of the PatchXpress was used for dispensing cells and applying test compounds. Nav late currents were evoked by the application of 300 nM ATX-II. INaL was evoked by depolarizing pulses to 0 mV for 200 ms from a non-inactivating holding potential (e.g., −120 mV) at a frequency of 0.1 Hz. INaL amplitude and stability were determined by analyzing the mean current amplitude over the final 20 ms of the test pulse. […] Percent steady-state inhibition of INaL was calculated as: [(INaL_compound)/(INaL_control)]*100, where INaL_compound and INaL_control represent INaL recorded in the presence or absence of compound, respectively.

T1 sequence (Q9UQD0 whole entry): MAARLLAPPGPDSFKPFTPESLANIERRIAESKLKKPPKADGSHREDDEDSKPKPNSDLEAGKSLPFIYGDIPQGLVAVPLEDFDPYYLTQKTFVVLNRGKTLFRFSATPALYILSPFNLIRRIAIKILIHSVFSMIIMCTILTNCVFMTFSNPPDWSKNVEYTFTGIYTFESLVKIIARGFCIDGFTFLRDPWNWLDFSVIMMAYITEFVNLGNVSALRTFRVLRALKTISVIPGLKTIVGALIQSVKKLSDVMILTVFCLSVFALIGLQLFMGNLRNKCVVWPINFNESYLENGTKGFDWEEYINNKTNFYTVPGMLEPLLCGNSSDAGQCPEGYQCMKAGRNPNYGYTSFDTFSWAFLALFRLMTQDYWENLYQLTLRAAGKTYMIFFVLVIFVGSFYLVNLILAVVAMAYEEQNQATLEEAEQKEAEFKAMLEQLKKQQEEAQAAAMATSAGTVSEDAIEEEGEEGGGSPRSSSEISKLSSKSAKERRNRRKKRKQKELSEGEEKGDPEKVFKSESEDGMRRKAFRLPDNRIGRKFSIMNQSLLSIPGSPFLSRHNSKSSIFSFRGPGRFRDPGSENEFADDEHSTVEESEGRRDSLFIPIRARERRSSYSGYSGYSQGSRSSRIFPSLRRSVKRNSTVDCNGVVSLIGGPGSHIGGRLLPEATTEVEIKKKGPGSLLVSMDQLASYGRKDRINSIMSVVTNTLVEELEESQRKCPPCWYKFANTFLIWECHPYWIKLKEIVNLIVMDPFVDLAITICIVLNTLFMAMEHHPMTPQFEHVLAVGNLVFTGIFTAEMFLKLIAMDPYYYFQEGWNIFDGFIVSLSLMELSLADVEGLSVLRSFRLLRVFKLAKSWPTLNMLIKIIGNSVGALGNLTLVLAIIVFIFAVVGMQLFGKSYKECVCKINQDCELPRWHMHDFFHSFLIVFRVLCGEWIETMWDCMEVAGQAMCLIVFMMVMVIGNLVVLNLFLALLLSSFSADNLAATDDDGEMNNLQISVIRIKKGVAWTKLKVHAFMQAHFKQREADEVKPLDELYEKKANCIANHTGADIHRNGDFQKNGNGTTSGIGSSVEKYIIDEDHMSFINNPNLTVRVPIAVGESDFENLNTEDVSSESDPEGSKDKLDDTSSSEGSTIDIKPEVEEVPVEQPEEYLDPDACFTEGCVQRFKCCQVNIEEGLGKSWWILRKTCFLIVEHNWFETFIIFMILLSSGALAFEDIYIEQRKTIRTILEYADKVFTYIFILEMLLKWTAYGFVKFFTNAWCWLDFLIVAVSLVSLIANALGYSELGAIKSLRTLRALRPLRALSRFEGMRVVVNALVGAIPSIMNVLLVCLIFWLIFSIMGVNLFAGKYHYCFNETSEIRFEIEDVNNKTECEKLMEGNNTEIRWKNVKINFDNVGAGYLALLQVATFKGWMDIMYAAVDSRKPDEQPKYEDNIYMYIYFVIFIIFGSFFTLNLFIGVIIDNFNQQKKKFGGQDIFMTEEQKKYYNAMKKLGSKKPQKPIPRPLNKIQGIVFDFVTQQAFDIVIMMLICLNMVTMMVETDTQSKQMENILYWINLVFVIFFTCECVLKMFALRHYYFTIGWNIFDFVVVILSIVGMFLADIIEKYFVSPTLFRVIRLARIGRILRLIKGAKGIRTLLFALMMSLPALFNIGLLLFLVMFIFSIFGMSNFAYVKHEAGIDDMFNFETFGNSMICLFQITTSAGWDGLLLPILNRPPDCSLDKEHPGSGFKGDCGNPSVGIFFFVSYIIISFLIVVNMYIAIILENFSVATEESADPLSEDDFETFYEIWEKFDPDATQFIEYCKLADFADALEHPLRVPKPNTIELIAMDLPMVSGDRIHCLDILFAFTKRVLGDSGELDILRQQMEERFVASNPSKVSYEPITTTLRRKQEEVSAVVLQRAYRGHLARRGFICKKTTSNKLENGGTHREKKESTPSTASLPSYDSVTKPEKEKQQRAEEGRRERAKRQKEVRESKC

inhibition at 1 µM [%] | Compound
> 70 | C[C@@H]1CCCN1C(=O)Cn1c(=O)oc2ccc(-c3ccc(OC(F)(F)F)cc3)nc21 [Compound 134]
> 70 | CCn1c(=O)oc2ccc(-c3ccc(OC(F)(F)F)cc3)cc21 [Compound 11]
30 to 70 | CN(CC(F)(F)F)C(=O)Cn1c(=O)oc2ccc(-c3ccc(OC(F)(F)F)cc3)cc21 [Compound 80]
> 70 | O=c1oc2ccc(-c3ccc(OC(F)(F)F)cc3)nc2n1Cc1cncnc1 [Compound 103]
< 30 | O=c1oc2ccc(-c3ccc(OC(F)F)cc3)nc2n1CCc1ncccn1 [Compound 136]
< 30 | O=C(Cn1c(=O)oc2ccc(-c3cnc(OCC(F)(F)F)c(F)c3)nc21)N1CCCC1 [Compound 137]
